According to US7772255B2, “Method of treating tumors with azaxanthones” (Supratek Pharma, Inc., priority 2005, dated 2010):

Key:
[1] = tested on: CSML100 cells; assay: Spontaneous metastasis model in mice (Example 27); format: in vivo, mouse
Description: Amlexanox solution for injections was prepared according to the Example 4. CSML100 cells (2.0×10^6 cells per animal) were inoculated subcutaneously to female A/J mice (6-7 weeks old). The animals were then divided randomly into 2 groups (n=9): Intact control (saline) and Amlexanox treated (100 mg/kg, daily i.v. injection for 10 consecutive days). The treatment started from the day following the tumor implantation. The measurement of tumor size was performed since day 11. On day 24, the tumors were surgically removed. The lung metastasis development was analyzed 40 days after the tumor resection.
The data in Table show spontaneous lung metastasis formation in this tumor model. The data are expressed as mean±SEM for the number of metastatic sites on the lung surface.

[2] = tested on: colorectal cancer; assay: Amlexanox in combination with irinotecan in colorectal cancer, first-line (Example 9); format: in vivo, human; details: amlexanox tablets orally plus irinotecan 350 mg/m^2 i.v. every 3 weeks, versus irinotecan alone
Description: In this open label randomized multicenter study 150 patients with colorectal cancer who have tumors that cannot be completely removed by surgery are treated by administering irinotecan alone and 150 patients, with colorectal cancer who have tumors that cannot be completely removed by surgery, are treated with combination of irinotecan and 500 mg amlexanox daily with two amlexanox 250 mg tablets, prepared in Example 3, taken twice daily orally to provide a daily dose of […] of amlexanox. Irinotecan was administered to all of the patients at a dose of 350 mg/m^2 once every 3 weeks intravenously during the course of this study. […] In addition, in each of the treated patients, duration of overall response, time to overall response, duration of progression-free survival, overall clinical benefit rate, overall survival rate and quality of life are determined. […] The patients are evaluated by standard WHO and/or RECIST criteria for response and disease status at six week intervals. […] All of the patients during the evaluation period are evaluated by the measurement of the tumors, survival and determination of any progression of the disease in the patient. Stability is measured during each evaluation to determine if there is any increase in the size and amount of tumors from the proceeding period and if there is no subsequent appearance of any other malignancies in the patient. […]

[3] = tested on: metastatic (Stage III-Stage IV) breast cancer; assay: Amlexanox monotherapy in advanced metastatic breast cancer resistant to prior chemotherapy (Example 8); format: in vivo, human; details: 500 mg orally twice daily; baseline until nine months after administration and follow up
Description: In this study 44 women patients with metastatic (Stage III-Stage IV) breast cancer who have relapsed following prior cytotoxic chemotherapy regiments containing anthracyclines and/or taxanes are treated by administering 500 mg amlexanox twice daily with two amlexanox 250 mg tablets prepared in Example 3 taken twice daily orally as outpatients. This treatment is carried out for determining the overall (complete and partial) response rate. In this group, the stable disease rate of patients treated with amlexanox is determined. In addition, in each of the treated patients, the time to disease progression is also determined. The results of this study are compared to untreated patients with metastatic (Stage III-Stage IV) breast cancer who have relapsed following the same prior cytotoxic chemotherapy regiment. […] The patients are evaluated by standard WHO and/or RECIST criteria for response and disease status at six week intervals. […] All of the patients during the evaluation period are evaluated by the measurement of the tumors, survival and determination of any progression of the disease in the patient. Stability is measured during each evaluation to determine if there is any increase in the size and amount of tumors from the proceeding period and if there is no subsequent appearance of any other malignancies in the patient. […]

[4] = tested on: S100A4-positive CSML100 cells; assay: Metastasis formation by S100A4-positive CSML100 cells in animal model (Example 6); format: in vivo, mouse; details: 100 mg/kg i.v. daily for 10 days
Description: In both groups the injection volume was 5 ml/kg. The treatments were started from the day following the tumor cell implantation for 10 consecutive days. The animal body weight was recorded as an index of treatment toxicity during the experiment.
Starting from the day 10 after the cell implantation, one animal of the control group was sacrificed every day to monitor the metastasis development. All animals were sacrificed on day 18 for routine metastasis inspection. […] The metastatic colonies on the organ surface were enumerated immediately following the removal of the organ.
The data were expressed as mean±SEM for the number of metastatic sites.

In the case of `CC(C)c1ccc2oc3nc(N)c(C(=O)O)cc3c(=O)c2c1` [Amlexanox, 2-amino-7-isopropyl-1-azaxanthone-3-carboxylic acid], the “Lung metastasis number 40 days after s.c. tumor resection” value ([1]; CSML100 s.c. in A/J mice, 100 mg/kg i.v. daily for 10 days, tumors removed day 24, mean±SEM, one animal (26 metastases) excluded) was 1.00 ± 0.55, the “Subcutaneous tumor size on day 14” value ([1]; CSML100 s.c. in A/J mice, 100 mg/kg i.v. daily injection for 10 days) was 0.05 ± 0.02 g and the “Trial/control × 100%” value ([1]; lung metastasis number 40 days after s.c. tumor resection, 100 mg/kg i.v. daily for 10 days) was 96.3%. The “percentage of patients with beneficial results (overall response rate, progression-free survival, overall survival etc.)” value [2] was “greater percentage of the patients in the group of patients treated with the amlexanox show beneficial results”, the “percentage of patients with no progression of the disease by WHO and/or RECIST criteria, compared to the non-treated group” value [3] was “greater percentage of the patients in the group of patients treated with the amlexanox show no progression of the disease” and the “Average of lung metastasis number per animal” value ([4]; CSML100 cells i.v. in female A/J mice, day 18, mean±SEM) was 18.8 ± 2.3. For the same molecule, the “Trial/control × 100%” value ([4]; lung metastasis number, day 18) was 48.5%, the “inhibition on metastases formation” value ([4]; mice inoculated CSML100 cells) was “significant inhibition on metastases formation” and the body weight loss ([4]; non-significant, A/J mice) was “less than 10%”.
